Values quoted from earlier work as cited in patent US11173217B2, “Methods and compositions for near infrared fluorescent nanodots with aggregation-induced emission characteristics” (priority 2016, dated 2021).

Conditions: in DMSO; cited from earlier work

## CC1(C)C(/C=C/C=C/C=C/C=C2\N(CCCCS(=O)(=O)[O-])c3ccc4ccccc4c3C2(C)C)=[N+](CCCCS(=O)(=O)[O-])c2ccc3ccccc3c21.[Na+] [IR-125]
  quantum yield of reference: 13%
